This is an account of results in patent publication US20080039328A1, “Post Harvest Control of Genetically Modified Crop Growth Employing D-Amino Acid Compounds” (BASF PLANT SCIENCE GMBH, priority 2004, published 2008).

One experiment has as its system DAAO transgenic plants. Kind of experiment: Germination of DAAO transgenic plants on D-Asn. The settings on record: 30 mM. The experiment is classed as in vivo. An excerpt: The D-amino acid oxidase of the invention may be expressed in the cytosol, peroxisome, or other intracellular compartment of the plant cell. Compartmentalisation of the D-amino acid metabolising polypeptide may be achieved by fusing the nucleic acid sequence encoding the DAAO polypeptide to a sequence encoding a transit peptide to generate a fusion protein. Gene products expressed without such transit peptides generally accumulate in the cytosol. The localization of expressed DAAO in the peroxisome produces H2O2 that can be metabolised by the H2O2 degrading enzyme catalase. Higher levels of D-amino acids may therefore be required to produce damaging levels of H2O2. Expression of DAAO in the cytosol, where levels of catalase activity are lower, reduces the amount of D-amino acid required to produce damaging levels H2O2. Expression of DAAO in the cytosol may be achieved by removing peroxisome targeting signals or transit peptides from the encoding nucleic acid sequence. For example, the dao1 gene (EC: 1.4.3.3: GenBank Acc.-No.: U60066) from the yeast Rhodotorula gracilis (Rhodosporidium toruloides) was cloned as described (WO 03/060133). The last nine nucleotides encode the signal peptide SKL, which guides the protein to the peroxisome sub-cellular organelle.

Experiment [1] deals with T1 seeds of transgenic Arabidopsis plants. Kind of experiment: Selection of T1 seeds on selective media. The settings on record: for Number of surviving seedlings: 2,074, 1,914 and 1,810 T1 seeds sown on D-alanine (3 mM), D-serine (3 mM) and kanamycin (50 μg/ml) plates, 5 d after germination; for Transformation frequencies found on the selective media: kanamycin 50 μg/ml, D-alanine 3 mM, D-serine 3 mM. The experiment is classed as in vivo. The method, then:
(§1) T1 seeds of transgenic Arabidopsis plants were surface-sterilized and sown in Petri plates that were sealed with gas-permeable tape. The growth medium was half strength MS19 with 0.5% (wt/vol) sucrose and 0.8% (wt/vol) agar, plus 3 mM D-alanine, 3 mM D-serine or 50 μg/ml kanamycin as the selective agent. Plants were grown for 5 d after germination with a 16 h photoperiod at 24° C. To evaluate the selection efficiency on different substrates, 2,074, 1,914 and 1,810 T1 seeds were sown on D-alanine-, D-serine- and kanamycin-selective plates, respectively, and the number of surviving seedlings was counted (44, 32 and 43, respectively).
(§2) The T-DNA contained both 35S:dao1 and pNos:nptII, allowing D-amino acid and kanamycin selection to be compared in the same lot of seeds.

The subject of experiment [2] is wild-type Arabidopsis thaliana. Kind of experiment: Growth of wild-type A. thaliana plantlets on medium with D-amino acids. Particulars: for Effect on plant growth (FIG. 3): 3 mM in half-concentrated Murashige-Skoog medium, wild type plantlets; for Growth of wild-type plants on selection media: immediately after the cotyledons had emerged; for Growth of wild-type plants (FIG. 4): various concentrations in half-strength MS, 10 d after germination. Format: in vivo. How it is done:
Wild type Arabidopsis thaliana plantlets were grown on half-concentrated Murashige-Skoog medium (0.5% (wt/vol) sucrose, 0.8% (wt/vol) agar) supplemented with the indicated D-amino acid at either 3 mM (Panel A) or 30 mM (Panel B).
(§3) FIG. 4 D-amino acid dose responses of dao1 transgenic and wild-type A. thaliana. (a-d) Growth of dao1 transgenic line 3:7 (white), 10:7 (light gray), 13:4 (gray) and wild-type (black) plants, in fresh weight per plant, on media containing various concentrations of D-serine, D-alanine, D-isoleucine and D-valine in half-strength MS with 0.5% (wt/vol) sucrose and 0.8% (wt/vol) agar. Different concentration ranges were used for different ID-amino acids. The plants were grown for 10 d after germination under 16 h photoperiods at 24° C.; n=10±s.e.m., except for plants grown on D-isoleucine, where smaller Petri dishes were used, (n=6±s.e.m.).
as §1

Experiment [3] has as its system dao1 transgenic A. thaliana. Kind of experiment: Growth of dao1 (DAAO) transgenic A. thaliana on medium with D-amino acids. The experiment is classed as in vivo, Arabidopsis thaliana. Particulars: for Effect on the transgenic plants: concentration of 30 mM; for Development of transgenic plants under selection conditions: in vivo. How it is done:
as §3, §1, §2
Therefore, plants containing the construct were tested as described above on two sets of media, one containing D-isoleucine and the other containing D-valine at various concentrations, to assess whether DAAO could also be used as a counter-selection marker. Unambiguous counter-selection selection was achieved when seeds were sown on either D-isoleucine or D-valine at concentrations greater than 10 mM (FIG. 4 c,d).

Another experiment concerns wild-type seedlings. Briefly: Sprayed (foliar) application on wild-type seedlings. Particulars: one-week-old seedlings, sprayed on three consecutive days, 50 mM. The experiment is classed as in vivo, A. thaliana. An excerpt: (§4) Selection of seedlings on media containing D-alanine or D-serine was very rapid compared to selection on kanamycin. […] Therefore, transformants could be distinguished from non-transformed plants directly after germination. The difference between wild-type and transgenic plants after D-amino acid selection was unambiguous, with no intermediate phenotypes. In contrast, intermediate phenotypes are common when kanamycin resistance is used as a selection marker. […] Transgenic seedlings were resistant to foliar application of D-alanine or D-serine, so selection on soil was possible.

The next experiment relates to Transgenic seedlings. Kind of experiment: Foliar application on transgenic seedlings. Particulars: in vivo. Further details: species or system A. thaliana.
Excerpt: as §4

The test system of the next experiment is A. thaliana. Briefly: Growth and toxicity tests on A. thaliana (genotype not stated). Format: in vivo. Particulars: for Effect on growth of A. thaliana: in vivo. The source says:
(§5) Presumably endogenous transaminase may be specific for the L-enantiomer, so the corresponding D-enantiomer is not metabolized in wildtype plants, but only in plants expressing DAAO. […] The toxicity of some D-amino acids on organisms is not well understood, and has only occasionally been studied in plants (Gamburg K Z & Rekoslavskaya N I (1991) Fiziologiya Rastenii 38, 1236-1246). Apart from A. thaliana, we have also tested the susceptibility of other plant species to D-serine, including poplar, tobacco, barley, maize, tomato and spruce. We found all tested species susceptible to D-serine at concentrations similar to those shown to be toxic for A. thaliana. A proposed mechanism for D-serine toxicity in bacteria is competitive inhibition of […] coupling to pantoic acid, thus inhibiting formation of pantothenic acid (Cosloy S D & McFall E (1973) J. Bacteriol. 114, 685-694). […] A second putative cause of D-amino acid toxicity is through competitive binding to tRNA. […] Genes similar to that encoding bacterial deacylase have also been identified. in A. thaliana (Soutourina J et al. (1996) J. Biol. Chem. 274, 19109-19114), corroborating the possibility that the mode of toxic action of D-amino acids might be through competitive binding to tRNA.

A further experiment has as its system barley. Kind of experiment: Susceptibility of other plant species to D-serine. The settings on record: concentrations similar to those toxic for A. thaliana. Format: in vivo.
Excerpt: as §5

For a further experiment, the system named is maize. Briefly: Susceptibility of other plant species to D-serine. The experiment is classed as in vivo. The settings on record: concentrations similar to those toxic for A. thaliana.
Excerpt: as §5

Another experiment has as its system poplar. Kind of experiment: Susceptibility of other plant species to D-serine. The settings on record: concentrations similar to those toxic for A. thaliana. Format: in vivo.
Excerpt: as §5

Another experiment has as its system spruce. Briefly: Susceptibility of other plant species to D-serine. The settings on record: concentrations similar to those toxic for A. thaliana. The experiment is classed as in vivo.
Excerpt: as §5

Another experiment has as its system tobacco. Kind of experiment: Susceptibility of other plant species to D-serine. Format: in vivo. The settings on record: concentrations similar to those toxic for A. thaliana.
Excerpt: as §5

The next experiment deals with tomato. Briefly: Susceptibility of other plant species to D-serine. Particulars: concentrations similar to those toxic for A. thaliana. Format: in vivo.
Excerpt: as §5

Another experiment concerns the target T1, DAAO (Rhodotorula toruloides, UniProt P80324).
T1 construct: expressed in transfected cells; host or cells: Arabidopsis thaliana (Col-0), dao1 transgenic line 10:7, transformed with pPCV702:dao1 (CaMV 35S); crude soluble protein extract
T1 sequence (P80324 25-368): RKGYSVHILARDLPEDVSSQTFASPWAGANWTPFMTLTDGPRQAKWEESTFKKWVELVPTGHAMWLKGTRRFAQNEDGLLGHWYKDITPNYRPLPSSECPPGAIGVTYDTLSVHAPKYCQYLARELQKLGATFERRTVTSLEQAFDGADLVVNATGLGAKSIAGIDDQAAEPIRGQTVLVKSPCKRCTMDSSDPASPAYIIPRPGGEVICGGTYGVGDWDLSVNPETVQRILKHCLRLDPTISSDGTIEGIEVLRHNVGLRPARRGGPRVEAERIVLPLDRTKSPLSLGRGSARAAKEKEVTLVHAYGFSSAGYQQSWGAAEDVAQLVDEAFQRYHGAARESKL
Briefly: DAAO incubation of cell-free plant extracts, keto acid production by HPLC. The experiment is classed as biochemical, Rhodotorula gracilis. Particulars: cell-free extracts from dao1 transgenic line 10:7. The method, then: Soluble proteins were extracted by shaking 0.1 g samples of plant material that had been finely pulverized in a 1.5 ml Eppendorf tube in 1 ml of 0.1 M potassium phosphate buffer, pH 8. DAAO activity was then assayed as follows. Reaction mixtures were prepared containing 2,120 μl of 0.1 M potassium phosphate buffer, pH 8, 80 μl of crude protein extract and 100 μl of 0.3 M D-alanine. The samples were incubated for 2 h at 30° C. The enzyme activity was then assessed, by measuring the increase in absorbance at 220 nm (E=1.090 M^−1 cm^−1) associated with the conversion of D-alanine to pyruvate, after transferring the test tubes to boiling water for […] to stop the reaction. In control reactions, D-alanine was added immediately before boiling. One unit of DAAO activity is defined as the turnover of one micromole of substrate per minute, and activity was expressed per gram plant biomass (fresh weight). The breakdown of D-isoleucine and D-valine in DAAO incubations, and the associated production of 3-methyl-2-oxopentanoate and 3-methyl-2-oxobutanoate, were analyzed by high-performance liquid chromatography. In other respects the reactions were carried out as described above.
Presumably endogenous transaminase may be specific for the L-enantiomer, so the corresponding D-enantiomer is not metabolized in wildtype plants, but only in plants expressing DAAO. […]

SMILES strings stand for the structures. Entries after “also recorded” stand apart in the source; their conditions may differ.

Consider `NC(=O)C[C@@H](N)C(=O)O` [D-Asn, D-asparagine], for which the “Inhibition of germination of DAAO transgenic plants (cytosolic and peroxisomal constructs)” value with DAAO transgenic plants is on record as “inhibited significantly more than the wild-type”.
For the compound `NC[C@H]1O[C@H](O[C@H]2[C@H](O)[C@@H](O[C@H]3O[C@H](CO)[C@@H](O)[C@H](N)[C@H]3O)[C@H](N)C[C@@H]2N)[C@H](O)[C@@H](O)[C@@H]1O` [kanamycin], in experiment [1], the “Number of surviving seedlings” value was determined as 43 and the “Transformation frequencies found on the selective media” value is 2.37%.
Consider `N[C@H](CO)C(=O)O` [D-serine], for which, in [2], the “Effect on plant growth (FIG. 3)” value was “severe phytotoxic effects”, the “Growth of wild-type plants on selection media” value is given as “inhibited growth” and the “Growth of wild-type plants (FIG. 4)” value is “inhibited even at quite low concentrations”. Moreover, the “Effect on growth of the transgenic plants” value in [3] (3 mM) was “slightly inhibited the growth”. In [3], the “Effect on the transgenic plants” value is given as “significant growth inhibition” and the “Development of transgenic plants under selection conditions” value is reported as “developed normally”. In experiment [1], the “Number of surviving seedlings” value is listed as 32 and the “Transformation frequencies found on the selective media” value is on record as 1.67%. Further, the “Concentration at which efficient selection was achieved (FIG. 4a)” value in experiment [1] (in vivo) is reported as “lower than 1 mM”. Besides, in the experiment on wild-type seedlings, the “Effect of sprayed application on wild-type seedlings” value is “effectively killed”. Also, in the experiment on Transgenic seedlings, the “Response of transgenic seedlings to foliar application” value is given as “resistant”. Further, the “Mitigation of toxicity in A. thaliana by pantothenic acid or a-alanine” value with A. thaliana (pantothenic acid or a-alanine provided) is recorded as “could not be mitigated”. In the experiment with barley, the Susceptibility of barley result is on record as “susceptible”. Further, the Susceptibility of maize result in the experiment with maize was “susceptible”. Moreover, the Susceptibility of poplar result with poplar is “susceptible”. The Susceptibility of spruce entry in the experiment on spruce was “susceptible”. The Susceptibility of tobacco entry in the experiment with tobacco was “susceptible”. In addition, in the experiment on tomato, the Susceptibility of tomato result was “susceptible”.
For the compound `CC[C@H](C)[C@H](N)C(=O)O` [L-isoleucine], the “Effects on wildtype plants” value in [2] (in vivo) is “negative effects”.
Take `C[C@@H](N)C(=O)O` [D-alanine]: in experiment [2], the “Effect on plant growth (FIG. 3)” value is recorded as “severe phytotoxic effects”, the “Growth of wild-type plants on selection media” value is recorded as “inhibited growth” and the “Growth of wild-type plants (FIG. 4)” value is recorded as “inhibited even at quite low concentrations”. Besides, the “Effect on wild-type plantlets (FIG. 2)” value in experiment [2] (treated with 30 mM) is given as “toxic effect”. Also, in experiment [3], the “Effect on the transgenic plants” value is “no negative effect” and the “Development of transgenic plants under selection conditions” value is on record as “developed normally”. In addition, in [3] (treated with 30 mM), the “Effect on transgenic plantlets comprising DAAO gene (FIG. 2)” value is recorded as “no severe damage”. In experiment [1], the “Number of surviving seedlings” value was 44 and the “Transformation frequencies found on the selective media” value worked out at 2.12%. For the same compound, the “Effect of sprayed application on wild-type seedlings” value in the experiment on wild-type seedlings is “effectively killed”. In the experiment with Transgenic seedlings, the “Response of transgenic seedlings to foliar application” value is given as “resistant”.
Take `CCC(C)C(=O)C(=O)O` (stereo not drawn) [3-methyl-2-oxopentanoate]: the “Effect on growth of A. thaliana” value in the experiment on A. thaliana is “impaired growth”.
Turning to `CC(C)[C@@H](N)C(=O)O` [D-valine], the “Effect on wild-type plants at higher concentrations (FIG. 4d)” value in [2] (higher concentrations) is “moderately negative effect”. In addition, in experiment [2], the “Growth of wild-type plants (FIG. 4)” value is given as “not toxic; also recorded: minor effects; also recorded: not the wild-type plants”. In addition, the “Growth of plants expressing DAAO (FIG. 4)” value in experiment [3] (various concentrations in half-strength MS, 10 d after germination) is recorded as “strong negative influence on the growth; also recorded: inhibit growth”. Further, the “Increase in production of 3-methyl-2-oxobutanoate compared to extracts of wild-type plants” value at DAAO was 7 fold.
Take `CC(C)C(=O)C(=O)O` [3-methyl-2-oxobutanoate, 3-methyl-2-oxobutanoate]: the “Effect on growth of A. thaliana” value with A. thaliana is recorded as “impaired growth”.
